Experimental findings from patent US20090247634A1, “Methods for identifying modulators of eoxin formation” (priority 2006, published 2009) are described below.

Where “and” joins values, the source holds several entries; their conditions need not be identical. Equal entries are not always repeated.

The test system of series [1] is eosinophils. In words: Inhibitor studies on formation of Eoxin C4 and LTC4 in eosinophils. It is filed as cell-based, human. To be noted: 2 min preincubation, A23187 (1 μM) and arachidonic acid, 5 min, 37° C. The procedure: Isolated eosinophils (5-10×10^6/sample) were resuspended in phosphate buffered saline (1 ml/sample) and preincubated for 2 minutes in 37° C. prior to stimulation with Eox A4 (10 μM), LTA4 (10 μM) or both for 5 minutes in 37° C. Alternatively, for inhibitor studies, eosinophils were preincubated for 2 minutes in 37° C. in presence of BW70C (1 μM) or MK886 (10 μM) prior to stimulation with ionophore A23187 (1 μM) and arachidonic acid (40 μM) for 5 minutes in 37° C. The reactions were terminated by addition of three volumes of methanol. Metabolites were detected and quantified utilising Waters 996 photodiode array spectrophotometer connected to Waters 1996 HPLC system.

The subject of series [2] is confluent bovine endothelium cells. In words: Endothelial cell barrier function (TEER), Example 6a. It is filed as cell-based. As to conditions: for plasma leakage / change in TEER: 10^−7 and 10^−8 M; for potency relative to the most potent 5-lipoxygenase derived leukotrienes: FIG. 22. Here is the method: Bovine aorta endothelial cells (BAEC) and human umbilical vein endothelial cells (HUVEC) were isolated and cultured with calf serum or human serum. BAEC or HUVEC in the first to fifth passages were detached by brief (2 min) trypsin-EDTA treatment (0.25% trypsin/0.01% EDTA) and replated onto 3.0 μm pore size polycarbonate filters (Tissue Culture inserts, 10 mm; NUNC, Roskilde, Denmark) or, for the purpose of visual inspection, 0.2 μm pore size Anopore inorganic membrane (transparent when wet). In order to promote cellular differentiation and enhance attachment of EC, the filters were pretreated with 50 μl Biomatrix 1 (167 μg/ml) and air-dried. EC were seeded at a density of 2×10^5 cells per filter and incubated in culture medium at 37° C. in a humidified atmosphere of 5% CO2 in air. The EC were grown to confluent monolayers, as assessed by daily microscopic observation, in transparent 0.2 μm pore size filters and measurement of the electrical resistance across the monolayer. Under these experimental conditions maximal resistance is obtained at day 7 postseeding, at which day the EC monolayers were then used in the experiments.
Rapid changes in endothelial cell (EC) barrier function in response to various arachidonic acid metabolites were analysed through continuous registration of transendothelial electrical resistance (TEER) with electrodes on each side of EC monolayer^18. For measurement of TEER, the filter insert with ECs was transferred to a resistance measurement chamber (Endohm-12, World Precision Instruments, Sarasota, Fla., USA) modified so as to assure exact positioning of the electrodes in relation to each other and to the filter insert daring repeated measurements. The chamber (low compartment) and the filter insert (upper compartment) were filled with 2 ml and 400 μl culture medium, respectively. All measurements were made at 37° C. with the equipment placed in a cell culture incubator. Direct readings of the electrical resistance were given by an ohmmeter (Evom, World Precision Instruments, Sarasota, Fla., US) connected to the electrodes of the resistance chamber. The electrical resistance of individual EC monolayers was obtained by subtracting the resistance of the corresponding naked filter coated with Biomatrix as measured prior to seeding of the EC. Thus, TEER values represent the resistance of the EC monolayer solely and depend on the development of tight junctions between adjoining endothelial cells.

For series [3], the system named is neutrophils. Briefly: Oxidative metabolism of neutrophils, lucigenin-enhanced chemiluminescence. The series is classed as cell-based, human. The procedure:
(§1) Neutrophil and eosinophil granulocytes were purified from peripheral whole blood using a Percoll gradient and the magnetic cell separation system (MACS).
(§2) Granulocytes were primed for 30 minutes at 37° C. with either IL-5 (10.5 ng/mL) or GM-CSF (10.5 ng/mL) and subsequently stimulated with IL-5 (100 ng/mL), GM-CSF (100 ng/mL), LTB4 (10^−7M) or Eoxin (10^−8-10^−6M). Oxidative metabolism was measured by a lucigenin-enhanced chemiluminescence (CL) assay.

A short description of series [4]: Non-enzymatic metabolism during incubation at 37° C. It is filed as physicochemical. To be noted: 60 min incubation at 37° C. The procedure:
In order to analyze if eosinophils can metabolize 14,15-LTC4 to 14,15-LTD4 and 14,15-LTE4, eosinophils were incubated with synthetic 14,15-LTC4 or 14 (R)-cysteinyl-glycyl-15(S)-hydroxy-5,8,10,12(Z,Z,E,E)-eicosatetraenoic acid (14,15-LTD4) for 60 min at 37° C. The metabolites formed were analyzed with product ion scan at 497.2 m/z for 14,15-LTD4 and 440.2 m/z for 14,15-LTE4. The retention time and mass spectrum of a product formed (Metabolite 2) from 14,15-LTC4 were identical to synthetic 14,15-LTD4 (FIG. 30B), and a product formed (Metabolite 3) after incubation with 14,15-LTD4 had identical retention time and mass spectrum as synthetic 14 (R)-cysteinyl-15(S)-hydroxy-5,8,10,12(Z,Z,E,E)-eicosatetraenoic (14,15-LTE4) (FIG. 30C). […] (data not shown). Basically, the product ion mass spectra of 14,15-leukotrienes and corresponding 5-lipoxygenase derived cysteinyl-leukotrienes are almost identical. However, 14,15-leukotrienes form a fragment at 205 m/z, whereas the corresponding fragment in 5-lipoxygenase derived cysteinyl-leukotrienes is at 189 m/z (FIG. 31). These collision induced dissociation products are probably formed by a cleavage next to the carbon where the cysteinyl group is positioned, which is at carbon 14 for 14,15-leukotrienes and carbon 6 for leukotrienes.

Series [5] has as its system Hodgkin cell line L1236. In words: Inhibition of EoxC4 formation in the human cell line L1236. The series is classed as cell-based. Here is the method:
[…] After pre-incubation with the test substance for 5 minutes, arachidonic acid (40 μM) was added. Incubation was stopped after 2 minutes with addition of one volume of methanol. Each test substance concentration was incubated in duplicate.
Cells and cell debris were removed by centrifugation (2600 rpm, 6 min) from the samples. The supernatant was diluted with water and then transferred to a washed and equilibrated extraction cartridge, Oasis HLB 1 cc 10 mg (Waters, Sweden). The metabolites were eluted with methanol and diluted with water before injected to the HPLC system.
RP-HPLC was performed on a Nova Pak C18 column (2.1×150 mm, Waters AB, Sweden). The initial mobile phase consists of 100% A (0.05% (8.7 mM) acetic acid, with pH adjusted to 5.6 with ammonium) at a flow rate at 0.4 mL/min. A linear gradient was started after five minutes to 36% B (60:40 acetonitrile:methanol) at 20 minutes. The mobile phase was than held isocratic at 64:36, A:B for another 20 minutes. Column effluent was monitored using diode array detection (PDA 996, Waters AB, Sweden) and UV spectra were acquired between 200-340 nm.
[…] Incubation and extraction was performed as described above.

Series [6] relates to eosinophils. In words: Oxidative metabolism of eosinophils, lucigenin-enhanced chemiluminescence. It is filed as cell-based, human. The procedure: as §1, §2
For series [7], the system named is eosinophils. In words: Receptor mediated activation of 14,15-LTC4 biosynthesis in eosinophils (EIA). It is filed as cell-based, human. As to conditions: LTC4 (1 μM), PGD2 (1 μM) or IL-5 (10 ng/ml), 5 min, 37° C. The procedure:
A possible receptor mediated activation of 14,15-LTC4 formation was investigated by using the allergen induced mast cell mediators LTC4 and prostaglandin (PG) D2 as well as IL-5, which is a potent eosinophil activator. Isolated eosinophils (10×10^6/sample) were incubated for 5 min, at 37° C. with LTC4 (1 μM), PGD2 (1 μM) or IL-5 (10 ng/ml). Leukotriene C4, PGD2 and IL-5 all induced release of 14,15-LTC4 from eosinophils after 5 min of incubation (table 2).
(§3) Isolated eosinophils (1-20×10^6/sample) were resuspended in phosphate buffered saline (1 ml/sample) and pre-incubated for 2 minutes in 37° C. (in presence or absence of indomethacin, 1 μM) prior to stimulation with ionophore A23187 (1 μM)/arachidonic acid (1 or 10 μM)/A23187 plus arachidonic acid/PGD2 (1 μM)/LTC4 (1 μM)/IL-5 (10 ng/ml)/14,15-LTC4 (10 μM) or 14,15-LTD4 (10 μM) for indicated time periods at 37° C. The incubations were terminated by addition of one volume of methanol (for analysis by RP-HPLC). For subsequent analysis by enzyme immunoassay (EIA), reactions were terminated by rapid cool off, 0° C., before centrifugation at 1200×g, 5 min. Supernatants were transferred to cryo tubes and stored in −70° C. until analyzed.
Supernatants were diluted in EIA buffer and analyses were performed according to the manufacturer's protocol. The optical density (OD) from the EIA determinations was used to calculate % B/B0 according to the relationship: […]

In series [8] the test system is eosinophils. In words: Metabolism in eosinophils after 5 min of incubation. Here is the method:
(§4) Human eosinophils contain abundant amounts of both 15-lipoxygenase and 5-lipoxygenase. […] The cells were incubated for five minutes at 37° C. and the amounts of 14,15-LTC4 and LTC4 were analyzed with RP-HPLC. […] Therefore, measurement of these metabolites is considered to reflect the total formation of 15-lipoxygenase derived cysteinyl-containing 14,15-leukotrienes and 5-lipoxygenase derived cysteinyl-containing leukotriens, respectively.

Series [9] relates to eosinophils. Briefly: Biosynthesis of 14,15-LTC4 and LTC4 in eosinophils (RP-HPLC). To be noted: ionophore A23187 (1 μM), 5 min, 37° C.; one line per donor 1-11. The series is classed as cell-based, human. Here is the method:
as §4, §3
In order to get rid of cellular debris and proteins, centrifugation at 1200×g for 5 min. was performed. Supernatants were evaporated under reduced pressure and the residues resolved in methanol and transferred to a test tube. Samples were thereafter evaporated to dryness under a stream of nitrogen, and finally resuspended in 200 μl mobile phase (acetonitril:methanol:H20:acetic acid, 29:19:72:0.8, pH adjusted to 5.6 with NH3 for analysis of leukotrienes and 14,15-leukotrienes, and methanol:water:trifluoroacetic acid 70:30:0.007 for analysis of monohydroxy acids). The extracted samples were subjected to analysis in a reverse phase HPLC system as described. Briefly, samples were applied to a octadecyl reverse phase column (Chromabond ^18C, Macherey-Nagel, Duren, Germany) and elution rate was 1.2 ml/minute.

Turning to `CC(/C=C/c1cccc(Oc2ccc(F)cc2)c1)N(O)C(N)=O` (stereo not shown) [BW70C], the “LTC4 peak (LTC4 formation)” value in series [1] (BW70C 1 μM) is reported as “totally abolished”.
For `CCCCC[C@H](O)[C@@H](/C=C/C=C/C=C\C/C=C\CCCC(=O)O)SC[C@H](N)C(=O)NCC(=O)O` [EoxD4, 14 (R)-cysteinyl-glycyl-15 (S)-hydroxy-5,8,10,12 (Z,Z,E,E)-eicosatetraenoic acid], in series [2], the “plasma leakage / change in TEER” value was “induce significant plasma leakage” and the “potency relative to the most potent 5-lipoxygenase derived leukotrienes” value is “about five to ten times less potent”. In addition, the “radical production by GM-CSF primed neutrophils” value in [3] (GM-CSF (10.5 ng/mL) primed, Eoxin 10^−8-10^−6M) was “induced the radical production by primed cells in a dose-dependent manner”. The responders in series [3] (GM-CSF primed neutrophils) is on record as 7-10 subjects of 13. Further, in series [4], the non-enzymatic metabolism result is “no non-enzymatic metabolism”.
As to “GM-CSF: the cytokine GM-CSF, a known activator of the oxidative metabolism”, the “oxygen free radical production by non-primed neutrophils” value in series [3] (non-primed blood neutrophils, GM-CSF 100 ng/mL, LTB4 10^−7M, Eoxin 10^−8-10^−6M) is “induced the oxygen free radical production”.
For `CCCCCC#CCC#CCC#CCC#CCCCC(=O)O` [ETYA, Eicosatetraynoic acid], the “formation of EoxC4” value in series [5] (ETYA 10^−4-4 M, FIG. 26) is listed as “completely blocked”; in [5] (ETYA 10^−5-5 M) it was “decreased”. For the same compound, the “formation of EoxD4” value in [5] (ETYA 10^−4-4 M, FIG. 26) was “completely blocked”; in series [5] (ETYA 10^−5-5 M) it was “decreased”.
Regarding `CC(C)c1ccc2c(c1)c(SC(C)(C)C)c(CC(C)(C)C(=O)O)n2Cc1ccc(Cl)cc1` [MK886], the EoxC4 synthesis result in series [1] (MK886 10 μM) is “blocked”.
In the case of `CCCCC[C@H](O)[C@@H](/C=C/C=C/C=C\C/C=C\CCCC(=O)O)SC[C@H](N)C(=O)O` [EoxE4, 14 (R)-cysteinyl-15 (S)-hydroxy-5,8,10,12 (Z,Z,E,E)-eicosatetraenoic acid], in series [6] (IL-5 (10.5 ng/mL) primed, Eoxin 10^−8-10^−6M), the “radical production by IL-5 primed eosinophils” value was “broad dose-related induction of the radical production”. In addition, in [6] (IL-5 primed eosinophils), the responders is given as 3 of 6 subjects. In series [2], the “plasma leakage / change in TEER” value is “induce significant plasma leakage” and the “potency relative to the most potent 5-lipoxygenase derived leukotrienes” value is “about five to ten times less potent”.
As to `CCCCC[C@H](O)/C=C/[C@H]1C(=O)C[C@H](O)[C@@H]1C/C=C\CCCC(=O)O` [PGD2, prostaglandin D2], the “14,15-LTC4” value in series [7] was found to be 43.8 ± 16.9 pg/10^7 cell.
Regarding `CCCCC/C=C\C\C=C/C=C/C=C/[C@@H](SC[C@H](NC(=O)CC[C@H](N)C(=O)O)C(=O)NCC(=O)O)[C@@H](O)CCCC(=O)O` [LTC4, leukotriene C4], the metabolism in eosinophils result in series [8] was “almost no metabolism”. For the same compound, the “14,15-LTC4” value in series [7] turned out to be 56.2 ± 42.5 pg/10^7 cell.
With `CNc1ccc2oc(C[C@H]3O[C@@]4(CC[C@H]3C)O[C@H]([C@H](C)C(=O)c3ccc[nH]3)[C@H](C)C[C@H]4C)nc2c1C(=O)O` [Compound A23187], in [9], the “14,15-LTC4” value worked out at 0 pmol/10^7; the LTC4 was 198 pmol/10^7 and 494 pmol/10^7 and 82 pmol/10^7 and 108 pmol/10^7 and 64 pmol/10^7 and 326 pmol/10^7 and 170 pmol/10^7 and 30 pmol/10^7 and 264 pmol/10^7 and 50 pmol/10^7 and 40 pmol/10^7.
For “IL-5: IL-5, which is a potent eosinophil activator”, the “14,15-LTC4” value in series [7] was determined as 131 ± 4.9 pg/10^7 cell.
